# Laboratory results from US9566342B2, “Compounds for treatment of heart failure” (SOLVOTRIN INNOVATIONS LIMITED, priority 2010, dated 2017).
# Where “and” joins values, the source holds several entries; their conditions need not be identical. Equal values may be shown once.
# Experiments:
# [1] = Blood pressure in non-human primates; details: cynomolgus monkeys, over dosing period
# MMP-13 = MMP-13 (Homo sapiens, UniProt P45452); assay: Direct enzyme inhibition, MMP-13; assay type: biochemical; details: 100 μM
# MMP-8 = MMP-8 (Homo sapiens, UniProt P22894); assay: Direct enzyme inhibition, MMP-8; assay type: biochemical; details: 100 μM
# MMP-8, sequence (P22894 101-467, species assumed): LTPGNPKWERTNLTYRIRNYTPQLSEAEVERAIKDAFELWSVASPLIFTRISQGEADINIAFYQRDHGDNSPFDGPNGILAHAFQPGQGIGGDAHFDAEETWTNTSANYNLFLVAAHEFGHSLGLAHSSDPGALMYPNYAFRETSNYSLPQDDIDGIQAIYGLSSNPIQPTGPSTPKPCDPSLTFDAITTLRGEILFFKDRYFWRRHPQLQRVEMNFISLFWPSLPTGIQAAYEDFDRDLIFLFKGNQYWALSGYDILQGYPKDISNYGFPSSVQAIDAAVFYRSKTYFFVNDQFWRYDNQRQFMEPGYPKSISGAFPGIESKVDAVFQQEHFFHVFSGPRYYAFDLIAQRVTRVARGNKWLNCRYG
# human colon cancer cells = assay: Colon cancer cell invasiveness, in vitro model; assay type: cell-based; details: low dose, FIG. 10
# MMP-2 [2] = target: T1, MMP-2 (Homo sapiens, UniProt P08253); assay: Direct inhibition of recombinant MMP-2, fluorogenic substrate; assay type: biochemical; set-up: purchased R&D Systems, Ireland; details: 100 μM; read-out: inhibition of recombinant human MMP-2
# T1 sequence (P08253 110-660): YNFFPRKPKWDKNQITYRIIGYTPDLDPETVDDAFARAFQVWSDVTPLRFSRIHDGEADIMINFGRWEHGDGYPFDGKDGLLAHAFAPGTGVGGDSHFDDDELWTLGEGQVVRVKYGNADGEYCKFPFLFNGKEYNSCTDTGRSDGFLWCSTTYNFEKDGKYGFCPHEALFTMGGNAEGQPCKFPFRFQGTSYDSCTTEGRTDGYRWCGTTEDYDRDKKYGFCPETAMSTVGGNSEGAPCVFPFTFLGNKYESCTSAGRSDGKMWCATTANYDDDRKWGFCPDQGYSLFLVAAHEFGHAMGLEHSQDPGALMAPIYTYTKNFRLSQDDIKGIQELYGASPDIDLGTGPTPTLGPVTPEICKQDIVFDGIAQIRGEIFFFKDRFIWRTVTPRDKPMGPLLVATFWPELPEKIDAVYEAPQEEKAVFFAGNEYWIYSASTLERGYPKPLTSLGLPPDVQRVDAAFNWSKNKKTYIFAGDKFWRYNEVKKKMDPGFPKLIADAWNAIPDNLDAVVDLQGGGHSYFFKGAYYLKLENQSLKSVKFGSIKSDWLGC
# MMP-9 mRNA = assay: TNFα treated human cardiac fibroblasts, MMP-9 transcription (QPCR); assay type: cell-based; details: HCF
# MMP-2 [3] = target: T1, MMP-2; assay: Model of direct enzyme inhibition, MMP-2 (IC50); assay type: biochemical
# [4] = cancer patients, Phase I, cited from earlier work
# MMP-1 = target: T2, MMP-1 (Homo sapiens, UniProt P03956); assay: Direct enzyme inhibition, MMP-1; assay type: biochemical; details: 100 μM
# T2 sequence (P03956 100-469): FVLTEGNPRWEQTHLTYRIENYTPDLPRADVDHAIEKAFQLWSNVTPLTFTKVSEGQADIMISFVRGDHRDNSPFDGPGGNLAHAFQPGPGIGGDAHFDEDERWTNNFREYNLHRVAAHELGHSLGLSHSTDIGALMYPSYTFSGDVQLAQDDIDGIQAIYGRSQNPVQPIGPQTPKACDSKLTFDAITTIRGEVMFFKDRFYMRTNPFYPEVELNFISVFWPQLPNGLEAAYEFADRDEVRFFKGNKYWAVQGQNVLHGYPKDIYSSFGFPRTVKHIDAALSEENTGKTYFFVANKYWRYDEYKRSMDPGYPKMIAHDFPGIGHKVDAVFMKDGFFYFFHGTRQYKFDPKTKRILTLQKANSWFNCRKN
# MMP-9 [5] = assay: Total MMP-9 levels on repeated oral administration in non-human primates; assay type: in vivo, cynomolgus monkeys
# [6] = tested on: Human Peripheral Blood mononuclear cells (PBMC) stimulated with TNF-α; assay: MMPs, TIMP-1 and inflammatory markers in supernatants of PBMC stimulated with TNF-α; assay type: cell-based
# MMP-9 [7] = target: T3, MMP-9 (Homo sapiens, UniProt P14780); assay: Direct inhibition of recombinant MMP-9, fluorogenic substrate; assay type: biochemical; set-up: purchased R&D Systems, Ireland; details: 100 μM; read-out: inhibition of recombinant human MMP-9
# T3 sequence (P14780 94-707): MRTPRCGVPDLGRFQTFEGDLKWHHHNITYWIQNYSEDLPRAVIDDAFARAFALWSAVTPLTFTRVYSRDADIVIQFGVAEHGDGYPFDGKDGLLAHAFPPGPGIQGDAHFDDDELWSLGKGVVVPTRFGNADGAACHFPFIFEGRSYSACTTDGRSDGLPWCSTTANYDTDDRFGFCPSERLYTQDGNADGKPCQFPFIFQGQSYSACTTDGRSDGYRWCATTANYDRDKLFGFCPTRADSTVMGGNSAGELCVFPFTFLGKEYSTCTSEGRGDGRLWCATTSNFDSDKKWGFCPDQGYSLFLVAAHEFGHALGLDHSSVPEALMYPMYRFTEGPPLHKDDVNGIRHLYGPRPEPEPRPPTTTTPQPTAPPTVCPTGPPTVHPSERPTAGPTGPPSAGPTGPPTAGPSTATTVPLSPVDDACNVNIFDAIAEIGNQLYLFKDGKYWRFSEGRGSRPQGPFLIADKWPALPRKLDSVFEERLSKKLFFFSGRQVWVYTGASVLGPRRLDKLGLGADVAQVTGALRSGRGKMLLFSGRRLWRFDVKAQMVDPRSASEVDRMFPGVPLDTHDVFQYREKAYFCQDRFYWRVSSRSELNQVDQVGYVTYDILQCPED
# [8] = Plasma doxycycline and nitrite/nitrate (NOx) in non-human primates; assay type: in vivo, cynomolgus monkeys; details: cynomolgus monkey, po, 4.8 mg/kg doxycycline hyclate, day 3 of dosing, base equivalents, read-out: Maximum plasma doxycycline concentration (Cmax)
# MMP-9 [9] = assay: PMA-stimulated CaCo2 cells, zymography of media, MMP-9; assay type: cell-based; details: CaCo2 cells, PMA, 150 uM
# MMP-9 [10] = target: T3, MMP-9; assay: Model of direct enzyme inhibition, MMP-9 (IC50); assay type: biochemical
# MMP-2 mRNA = assay: TNFα treated human cardiac fibroblasts, MMP-2 transcription (QPCR); assay type: cell-based; details: HCF, 10 ng/mL TNFα 72 hours, 75 or 150 μM
# MMP-2 [11] = assay: PMA stimulated breast cancer cell model (HT1080 cells), pro-MMP-2 / MMP-2; assay type: cell-based; details: HT1080 cells, PMA
# MMP-2 [12] = assay: PMA-stimulated CaCo2 cells, zymography of media, MMP-2; assay type: cell-based; details: 150 uM
# MMP-9 [13] = assay: PMA stimulated fibrosarcoma cell model (HT1080 cells), MMP-9; assay type: cell-based; details: 100 micromolar
# [14] = 75 μM, 24 hours, TNFα, mean ± SEM
# [15] = 150 μM, 24 hours, TNFα, mean ± SEM
compound,measurement,setting,value
"C[C@H]1c2cccc(O)c2C(=O)C2=C(O)[C@]3(O)C(=O)C(C(N)=O)=C(O)[C@@H](N(C)C)[C@@H]3[C@@H](O)[C@@H]21 [Doxycycline, (4S,4aR,5S,5aR,6R,12aS)-4-(dimethylamino)-3,5,10,12,12a-pentahydroxy-6-methyl-1,11-dioxo-1,4,4a,5,5a,6,11,12a-octahydrotetracene-2-carboxamide, reference compound]",diastolic blood pressure,[1],58.6±6.0 mmHg
same,mean systolic blood pressure,[1],109.7±7.1 mmHg
same,inhibition at 100 µM,MMP-13,~54%
same,inhibition at 100 µM,MMP-8,~42.7%
same,colon cancer cell invasiveness,human colon cancer cells,does not reduce colon cancer cell invasiveness
same,inhibition at 100 µM,MMP-2 [2],34 ± 3.5%
same,MMP-9 protein levels in treated cell supernatants,MMP-9 mRNA,below the lower limit of quantification
same,TNFα induced upregulation of MMP-9 mRNA,"MMP-9 mRNA; 10 ng/mL TNFα 72 hours, 75 or 150 μM","In contrast to doxycycline hyclate, SI1004 significantly inhibited"
same,IC50,MMP-2 [3],~129 µM and 129 µM
same,"oral dose resulting in dose-limiting toxicity (fatigue, confusion, nausea, vomiting)",[4],400 mg administered twice a day
same,maximum tolerated dose,[4]; oral,300 mg twice a day
same,inhibition at 100 µM,MMP-1,~12%
same,"total plasma MMP-9, median AUC","MMP-9 [5]; NHPs, daily orogastric gavage for 72 hours, n=6",8.7 µg·h/mL
same,change in MMP-9 from baseline to 72 hours,"MMP-9 [5]; cynomolgus monkeys, oral gavage once daily for three days, n=6 per group",MMP-9 levels increase
same,Interleukin-1β protein level in PBMC supernatant,[6]; [14],34.6 ± 5.8 ng/mL
same,Interleukin-4 protein level in PBMC supernatant,[6]; [14],9.4 ± 1.2 ng/mL
same,Interleukin-5 protein level in PBMC supernatant,[6]; [14],40.8 ± 9.0 ng/mL
same,Interleukin-8 protein level in PBMC supernatant,[6]; [14],8852 ± 2568 ng/mL
same,Interleukin-10 protein level in PBMC supernatant,[6]; [14],136.6 ± 74.2 ng/mL
same,Interleukin-13 protein level in PBMC supernatant,[6]; [14],79.6 ± 17.2 ng/mL
same,MMP-1 protein level in PBMC supernatant,[6]; [14],144.0 ± 80.0 ng/mL
same,MMP-2 protein level in PBMC supernatant,[6]; [14],61.4 ± 54.2 ng/mL
same,MMP-10 protein level in PBMC supernatant,[6]; [14],36.0 ± 14.0 ng/mL
same,Interleukin-1β protein level in PBMC supernatant,[6]; [15],30.6 ± 5.0 ng/mL
same,Interleukin-4 protein level in PBMC supernatant,[6]; [15],9.8 ± 0.8 ng/mL
same,Interleukin-5 protein level in PBMC supernatant,[6]; [15],31.2 ± 5.8 ng/mL
same,Interleukin-10 protein level in PBMC supernatant,[6]; [15],92.2 ± 33.8 ng/mL
same,Interleukin-13 protein level in PBMC supernatant,[6]; [15],80.2 ± 3.2 ng/mL
same,MMP-1 protein level in PBMC supernatant,[6]; [15],134 ± 48 ng/mL
same,MMP-2 protein level in PBMC supernatant,[6]; [15],96.8 ± 80.6 ng/mL
same,MMP-10 protein level in PBMC supernatant,[6]; [15],47.6 ± 15.8 ng/mL
same,"IL-8 levels in TNFalpha stimulated PBMCs (admixture study, FIG. 14)",[6]; 150 micromolar,also reduce IL-8 levels compared to controls
same,inhibition at 100 µM,MMP-9 [7],33.3 ± 3.5%
same,Cmax,[8],5.1 µM
same,suppression of MMP-9 activity relative to PMA positive control,MMP-9 [9],did not affect MMP-9 levels
same,IC50,MMP-9 [10],~164 µM and 164 µM
same,MMP-2 mRNA expression,MMP-2 mRNA,no significant effects
same,conversion of pro-MMP-2 to active MMP-2 (activation of MMP-2),MMP-2 [11]; 100 μM,increase the conversion of available pro-MMP-2 to active MMP-2
same,pro-MMP-2 production,MMP-2 [11]; 100 micromolar,reduce pro-MMP-2 production
same,inhibition of MMP-2 activity relative to PMA positive control,MMP-2 [12],80%
same,MMP-9 production,MMP-9 [13],reduce MMP-9 production
